Values of other authors, collected in patent publication US20050182030A1, “Liquid injectable formulation of disodium pamidronate” (American Pharmaceutical Partners, Inc., priority 2001, published 2005).

Legend:
[1] = in vivo
[2] = liquid formulation
[3] = approximately normal ambient conditions

In the case of `NCCC(O)(P(=O)([O-])O)P(=O)([O-])O.[Na+].[Na+]` [pamidronate, 3-amino-1-hydroxypropane-1,1-diphosphonate disodium], the “Absorption from the gastrointestinal system” value [1] is given as “poor absorption” and the “Stability during long-term storage” value [2] is given as “unstable/reactive”.
For `NCCC(O)(P(=O)(O)O)P(=O)(O)O` [pamidronic acid], the Solubility in water is given as “not soluble in water”.
In the case of `NCCC(O)(P(=O)([O-])O)P(=O)([O-])O.O.O.O.O.O.[Na+].[Na+]` [pentahydrate, pamidronate disodium pentahydrate], the Stability to storage [3] is given as “stable to storage”.
